What was measured:
[1] = test system: T1, T. b. brucei 2T1 (parental wild type); experiment: microbe, parasite or virus in culture; design: species or system T. b. brucei 2T1 bloodstream form; Alamar blue (resazurin) viability of parental bloodstream-form trypanosomes, fluorescence; conditions: Trypanosoma brucei, 72 h, read-out: 2T1-WT EC50 (μM)
T1 construct: 2T1, bloodstream form
Method: Drug sensitivities were assessed using a modified version of the alamar blue assay described previously. Briefly, test drugs were serially diluted in 100 μl of complete HMI‐11 media across two rows of a white 96-well plate (Greiner, Stonehouse, UK). Bloodstream‐form trypanosome cultures were diluted in HMI‐11, and 100 μl was added to all wells to give a final cell density of 1 × 10^5 trypanosomes/ml. Plates were incubated for 48 h at 37°C/5% CO2, prior to the addition of 20 μl of 5 mM resazurin sodium salt (Sigma‐Aldrich, Gillingham, UK) in PBS, pH7.4. Plates were incubated for a further 24 h in the same conditions, before fluorescence was measured using a FLUOstar Optima fluorimeter (BMG Labtech, Aylesbury, UK) with excitation and emission filters of 544 nm and 590 nm, respectively. […] All EC50 values were determined at least three times independently.

SmPDE4A = target: T2, SmPDE4A (Schistosoma mansoni, UniProt A0ACM8RGL1); experiment: alamar blue growth assay of T. brucei TbrPDEB1/B2 double knockout dependent on this PDE; format: cell-based, Trypanosoma brucei; conditions: growth read-out of whole trypanosomes, not enzyme assay; HMI-11 medium, 37 °C, 48 h plus 24 h resazurin
T2 construct: gene PDE4A; full length 699 aa, codon-optimised, N-terminal first 70 aa of TbrPDEB1 as targeting tag, C-terminal GFP; expressed in T. b. brucei 2T1 lacking TbrPDEB1/B2
Description: alamar blue growth assay of T. brucei TbrPDEB1/B2 double knockout dependent on this PDE on SmPDE4A

TbrPDEB2 = target: T3, TbrPDEB2 (Trypanosoma brucei, UniProt Q38F42); experiment: as above; format: cell-based; conditions: growth read-out of whole trypanosomes, not enzyme assay; HMI-11 medium, 37 °C, 48 h plus 24 h resazurin
T3 construct: gene Tb09.160.3630; full length, C-terminal 6Myc tag, expressed from rRNA locus in T. b. brucei 2T1 lacking endogenous TbrPDEB1/B2
T3 sequence (Q38F42 entry or part of it): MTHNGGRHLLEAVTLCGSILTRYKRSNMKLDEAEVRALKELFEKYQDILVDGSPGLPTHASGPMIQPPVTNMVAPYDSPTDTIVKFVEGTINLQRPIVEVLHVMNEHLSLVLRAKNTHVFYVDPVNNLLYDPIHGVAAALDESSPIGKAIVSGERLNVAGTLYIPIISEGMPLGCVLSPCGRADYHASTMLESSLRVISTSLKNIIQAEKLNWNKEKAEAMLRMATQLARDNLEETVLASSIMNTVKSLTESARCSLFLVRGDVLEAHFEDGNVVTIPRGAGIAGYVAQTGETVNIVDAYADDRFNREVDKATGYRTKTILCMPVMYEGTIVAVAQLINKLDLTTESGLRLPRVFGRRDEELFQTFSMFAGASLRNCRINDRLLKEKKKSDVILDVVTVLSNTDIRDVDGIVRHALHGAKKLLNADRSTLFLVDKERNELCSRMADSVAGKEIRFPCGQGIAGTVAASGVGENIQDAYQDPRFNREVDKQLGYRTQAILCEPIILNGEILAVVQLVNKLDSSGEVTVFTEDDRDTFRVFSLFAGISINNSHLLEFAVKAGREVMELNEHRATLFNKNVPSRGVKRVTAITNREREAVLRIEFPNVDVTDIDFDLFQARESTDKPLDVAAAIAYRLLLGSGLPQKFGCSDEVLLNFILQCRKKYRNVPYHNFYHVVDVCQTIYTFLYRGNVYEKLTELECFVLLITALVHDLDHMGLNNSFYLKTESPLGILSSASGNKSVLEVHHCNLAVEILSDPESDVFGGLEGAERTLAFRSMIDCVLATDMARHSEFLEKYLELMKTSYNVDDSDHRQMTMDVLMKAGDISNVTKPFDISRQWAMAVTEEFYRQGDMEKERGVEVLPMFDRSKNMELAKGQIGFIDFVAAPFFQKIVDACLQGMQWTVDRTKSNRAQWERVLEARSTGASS
Description: alamar blue growth assay of T. brucei TbrPDEB1/B2 double knockout dependent on this PDE on TbrPDEB2

TbrPDEB1 = target: T4, TbrPDEB1 (Trypanosoma brucei, UniProt Q8WQX9); experiment: as above; format: cell-based; conditions: growth read-out of whole trypanosomes, not enzyme assay; HMI-11 medium, 37 °C, 48 h plus 24 h resazurin
T4 construct: gene PDEB1; full length, C-terminal 6Myc tag, expressed from rRNA locus in T. b. brucei 2T1 lacking endogenous TbrPDEB1/B2
T4 sequence (Q8WQX9 entry or part of it): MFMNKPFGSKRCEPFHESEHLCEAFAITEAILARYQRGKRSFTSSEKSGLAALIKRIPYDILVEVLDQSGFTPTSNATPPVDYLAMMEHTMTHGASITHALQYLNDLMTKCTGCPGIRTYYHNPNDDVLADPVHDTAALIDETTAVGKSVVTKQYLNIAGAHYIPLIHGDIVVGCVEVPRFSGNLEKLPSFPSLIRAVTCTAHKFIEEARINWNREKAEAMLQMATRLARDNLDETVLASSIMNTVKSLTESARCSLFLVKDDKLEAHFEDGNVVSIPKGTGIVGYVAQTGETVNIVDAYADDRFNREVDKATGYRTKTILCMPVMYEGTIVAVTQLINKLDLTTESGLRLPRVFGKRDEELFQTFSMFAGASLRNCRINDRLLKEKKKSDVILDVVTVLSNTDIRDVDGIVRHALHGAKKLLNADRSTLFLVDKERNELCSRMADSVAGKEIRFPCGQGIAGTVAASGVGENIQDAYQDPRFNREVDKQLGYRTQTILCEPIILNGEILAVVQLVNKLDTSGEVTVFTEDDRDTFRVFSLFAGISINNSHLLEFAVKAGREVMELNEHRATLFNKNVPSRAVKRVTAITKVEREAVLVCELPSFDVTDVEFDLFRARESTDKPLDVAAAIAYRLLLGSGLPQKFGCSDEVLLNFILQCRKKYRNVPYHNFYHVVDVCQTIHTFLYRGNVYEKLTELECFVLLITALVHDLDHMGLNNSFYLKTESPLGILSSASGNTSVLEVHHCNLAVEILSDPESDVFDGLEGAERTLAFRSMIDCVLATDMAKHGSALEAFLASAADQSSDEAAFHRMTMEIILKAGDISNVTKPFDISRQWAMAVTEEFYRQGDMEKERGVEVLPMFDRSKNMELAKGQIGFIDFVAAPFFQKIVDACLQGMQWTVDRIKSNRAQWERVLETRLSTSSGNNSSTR
Description: alamar blue growth assay of T. brucei TbrPDEB1/B2 double knockout dependent on this PDE on TbrPDEB1

SMILES	EC50 [1]	dKO+SmPDE4A / EC50 (SmPDE4A)	dKO+TbrPDEB2 EC50 (TbrPDEB2)	dKO+TbrPDEB1 EC50 (TbrPDEB1)
N=C(N)c1ccc(OCCCCCOc2ccc(C(=N)N)cc2)cc1 [Pentamidine]	0.0012 ± 0.0002 µM	–	–	–
COc1cc2c(cc1OC)-c1cc(=Nc3c(C)cc(C)cc3C)n(C)c(=O)n1CC2 [Trequisin]	33.2 ± 0.9 µM	–	–	–
COc1ccc(C2=NN(C3CCCCCC3)C(=O)[C@@H]3CC=CC[C@H]23)cc1OCCCCOc1ccc(-c2nn[nH]n2)cc1 [NPD-001]	0.1 ± 0.015 µM	24 ± 3 nM	84 ± 18 nM	–
COc1ccc(C2=NN(C3CCN(C(=O)CN4C(=O)CC(C)(C)CC4=O)CC3)C(=O)[C@@H]3CC=CC[C@H]23)cc1OC [NPD-226]	0.16 ± 0.01 µM	40 ± 4 nM	82 ± 9 nM	290 ± 110 nM
